In the assay the target is VEGFR II (KDR) kinase (Homo sapiens, UniProt P35968). Nature of the assay: Inhibition of KDR kinase activity (33P-ATP incorporation into poly-(Glu4Tyr), phosphocellulose filter). It counts as biochemical. Conditions: 10 minutes at room temperature; substrate poly-(Glu4Tyr). As to the method: Stock solutions Stock solution A: 3 mM ATP in water pH 7.0 (−70° C.) Stock solution B: g-33P-ATP 1mCi/100 μl Stock solution C: poly-(Glu4Tyr) 10 mg/ml in water
• Substrate solvent: 10 mM DTT, 10 mM manganese chloride 100 mM magnesium chloride • Enzyme solution: 120 mM Tris/HCl, pH 7,5, 10 μM sodium vanadium oxide
10 μl of substrate mix [10 μl vol ATP stock solution A+25 μCi g-33P-ATP (ca. 2.5 μl of stock solution B)+30 μl poly-(Glu4Tyr) stock solution C+1.21 ml substrate solvent], 10 μl inhibitor solution [substances corresponding to the dilutions, as a control 3% DMSO in substrate solvent] and 10 μl enzyme solution [11.25 μg enzyme stock solution (KDR or FLT-1 kinase) are diluted at 4° C. in 1.25 ml enzyme solution], are added to a tapering microtitre plate (without protein binding). The mixture is mixed thoroughly and incubated for 10 minutes at room temperature. Subsequently, 10 μl of stop solution (250 mM EDTA, pH 7.0) is added, mixed and 10 μl of the solution transferred to a P 81 phosphocellulose filter. Is is subsequently washed several times in 0.1 M phosphoric acid. The filter paper is dried, coated with MeltiLex and measured in a MicroBeta counter.
The IC50 values are determined from the concentration of inhibitor required to inhibit the phosphate incorporation to 50% of the uninhibited incorporation after deducting the reference value (EDTA-stopped reaction).

Among the data in patent publication US20110071165A1, “Aza- and polyazanthranyl amides and their use as medicaments” (NOVARTIS AG, priority 2000, published 2011) are IC50 values, retold here.

The structures appear in SMILES notation.

VEGFR II (KDR) kinase, sequence (P35968 20-1356, species assumed): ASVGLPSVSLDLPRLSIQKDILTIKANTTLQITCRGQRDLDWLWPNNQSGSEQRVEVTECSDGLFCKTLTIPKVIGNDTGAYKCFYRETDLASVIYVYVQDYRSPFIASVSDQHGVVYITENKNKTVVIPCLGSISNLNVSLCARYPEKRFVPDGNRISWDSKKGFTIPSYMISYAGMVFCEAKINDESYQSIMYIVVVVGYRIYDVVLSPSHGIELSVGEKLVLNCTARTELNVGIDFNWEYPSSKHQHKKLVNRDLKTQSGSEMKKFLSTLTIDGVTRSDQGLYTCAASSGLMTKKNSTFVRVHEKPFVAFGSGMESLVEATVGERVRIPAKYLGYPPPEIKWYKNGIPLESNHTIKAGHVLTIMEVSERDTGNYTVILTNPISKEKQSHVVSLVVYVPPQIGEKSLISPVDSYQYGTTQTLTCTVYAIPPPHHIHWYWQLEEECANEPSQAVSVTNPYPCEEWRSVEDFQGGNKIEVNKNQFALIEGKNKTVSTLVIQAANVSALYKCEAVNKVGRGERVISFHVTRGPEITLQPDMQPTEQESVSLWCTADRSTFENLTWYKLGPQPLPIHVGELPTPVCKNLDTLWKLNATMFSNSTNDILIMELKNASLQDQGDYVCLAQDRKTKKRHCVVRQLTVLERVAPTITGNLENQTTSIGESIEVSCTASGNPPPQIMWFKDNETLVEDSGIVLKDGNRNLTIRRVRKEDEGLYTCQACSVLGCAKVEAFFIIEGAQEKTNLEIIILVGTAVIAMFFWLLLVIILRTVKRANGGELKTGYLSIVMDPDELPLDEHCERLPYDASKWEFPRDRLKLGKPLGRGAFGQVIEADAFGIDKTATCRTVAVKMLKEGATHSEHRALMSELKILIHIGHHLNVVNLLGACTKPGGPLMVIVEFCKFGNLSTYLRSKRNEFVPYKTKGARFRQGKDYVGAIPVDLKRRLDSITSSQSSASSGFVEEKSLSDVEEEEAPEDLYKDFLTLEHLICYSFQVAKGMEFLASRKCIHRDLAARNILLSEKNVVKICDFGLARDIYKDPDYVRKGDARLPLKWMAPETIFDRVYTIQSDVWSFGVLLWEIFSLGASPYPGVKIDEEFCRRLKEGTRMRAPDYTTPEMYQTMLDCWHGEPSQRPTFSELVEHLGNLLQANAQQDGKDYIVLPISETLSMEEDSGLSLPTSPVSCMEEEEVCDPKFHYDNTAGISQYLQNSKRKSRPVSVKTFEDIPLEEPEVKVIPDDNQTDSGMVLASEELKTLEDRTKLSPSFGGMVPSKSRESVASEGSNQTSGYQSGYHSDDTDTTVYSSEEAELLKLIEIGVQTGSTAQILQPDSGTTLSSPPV

One may read the IC50 as the concentration that gives 50% inhibition. Lower therefore signals greater potency in that assay. For the compound `O=C(Nc1cc2ccccc2cn1)c1cncnc1NCc1ccncc1` [Example 2.0, N-isoquinolin-3-yl-4-[(4-pyridyl)methyl]amino-pyrimidine-5-carboxylic acid amide], inhibition was half-maximal at 100 nM (IC50).

The compound `O=C(Nc1cccc(C(F)(F)F)c1)c1cncnc1NCc1ccncc1` [Example 2.1] displayed an IC50 of 200 nM.
